A word on the IC50: it is the concentration at which inhibition is half-maximal. A high value points to weaker potency.

Data on one compound can be found in patent US20120225889A1, “USE OF MACROCYCLIC LACTONE DERIVATIVES FOR THE TREATMENT OF INFLAMMATORY DISORDERS” (PIRAMAL LIFE SCIENCES LIMITED, priority 2010, published 2012).

Assay [1] relates to IL-6. Description: Human monocyte assay (LPS-induced): IL-6. It counts as cell-based. The note with it: LPS stimulated human monocytes, 5 h. An excerpt: The assay was designed as in reference, Physiological Research, 52, 593-598, (2003), the disclosure of which is incorporated by reference for the teaching of the assay.
The objective of the assay is to determine whether compounds of the present invention—mediated inhibition of LPS-induced cytokines from monocytic THP-1 cell line translates to physiologically relevant human cells. Accordingly, the effect of compounds of the present invention on LPS—induced cytokine production from freshly isolated human monocytes was ascertained.
Peripheral blood was collected from healthy donors into potassium EDTA vacutainer tubes (BD Biosciences, USA). hPBMCs were isolated using density gradient separation (Histopaque-1077; Sigma, USA) and suspended in assay medium which is RPMI culture medium (Sigma, USA) containing 10% heat inactivated FBS (JRH Biosciences, Australia), 100 U/mL penicillin (Sigma, USA) and […] streptomycin (Sigma, USA). Monocytes in the hPBMCs were counted using a Coulter Counter following which the cells were resuspended at 2×10^5 monocytes/mL of assay medium. A cell suspension containing 2×10^4 monocytes was aliquoted per well of a 96-well plate (Nunc, USA). Subsequently, the hPBMCs were incubated for 4-5 h at 37° C., 5% CO2. During the incubation, the monocytes adhered to the bottom of 96-well plate. Following the incubation, the non-adherent lymphocytes were washed and assay medium was added to adherent monocytes. After 48 h of incubation at 37° C., 5% CO2, monocytes were pre-treated with various concentrations of test compound (prepared as 20 mM stock in DMSO; 1 μL of […] concentrated solution of test compound was dissolved in 200 μL cell suspension to achieve a final concentration of 0.03, 0.1, 0.3, 1, 3, 10, 30 and 100 μM) or vehicle (0.5% DMSO) or 10 μM dexamethasone (standard IL-6 and TNF-α inhibitor, Sigma, USA) for 30 min at 37° C., 5% CO2 and stimulated with 1 μg/mL LPS (Escherchia coli 0111:B4, Sigma, USA). The cells were then incubated for 5 h at 37° C., 5% CO2 following which supernatants were collected, stored at −70° C. and were assayed later for IL-6, and TNF-α by ELISA (OptiEIA ELISA sets, BD Biosciences, USA). The IC50 values were calculated by a nonlinear regression method using Graph Pad software (Prism 3.03).

The subject of the next assay is CEBPβ. Description: Gene expression profile using RTQ-PCR: CEBPβ. The class given is cell-based, human. The note with it: 3 μM. The procedure: The effect of the compound of example 7 was measured in stimulated untreated cells from the monocytic cell line (THP-1), human monocytes and synovial cells from rheumatoid arthritis patient. The effect of the compound in the THP-1 cell line was measured in terms of gene expression and was expressed as fold changes as compared to the cell stimulated control with no drug treatment.
THP-1 cells, human monocytes and synovial cells were treated with compound of example 7 or vehicle (0.5% DMSO). Total RNA isolation using a commercial RNA extraction kit (Qiagen Corporation, Germany) The first-strand cDNA was synthesized from total RNA using first strand cDNA synthesis kit from Invitrogen Corporation (California, USA). This was followed by real time quantitative polymerase chain reaction (RTQ PCR) using gene specific primers and standard thermal program of initial denaturation at 95° C. for 5 min and cycles of 95° C. for 10 seconds, followed by 60° C. for 30 seconds (Realplex PCR machine from Eppendorf, Germany). Quantitative measurement of products made during PCR cycles was normalized against a housekeeping gene (Actin) and was used to measure the gene expression as fold changes as compared to respective control.

The subject of assay [2] is IL-6. The assay can be described thus: Screening in LPS stimulated THP-1 cells: IL-6. The class given is cell-based. The settings on record: Homo sapiens, 24 h, ELISA. The procedure:
IL-6 (BD Biosciences, USA) production by LPS (Escherchia coli 0127:B8, Sigma, USA) in THP-1 cells (ATCC number: TIB202) was designed as in reference, Journal of Immunology, 151, 5631-5638, (1993), the disclosure of which is incorporated by reference for the teaching of the assay.
THP-1 cells were cultured in RPMI 1640 culture medium (Gibco BRL, UK) containing 100 U/mL penicillin and […] streptomycin, (100× solution, Sigma, USA) containing 10% FBS (JRH Biosciences, USA). 25,000 cells were seeded per well in 96-well plate (Nunc, USA). The cells were differentiated with PMA (Sigma, USA, prepared as 100 μg/mL stock in RPMI and was diluted to 5 ng/mL). The test compound (prepared as 20 mM stock in DMSO and diluted with DMSO to achieve the following final concentrations in the assay: 100, 10, 1, 0.1, 0.01, 0.001 and 0.0001 μM) or vehicle (0.5% DMSO) were added to the cells and the cells were incubated for 30 min at 37° C. LPS (Sigma, USA, prepared as 1 mg/mL stock in PBS) was added to achieve a final concentration of 1 μg/mL. Plates were incubated at 37° C. for 24 h at 5% CO2. Supernatants were harvested, and assayed for TNF-α and IL-6 by ELISA as described by the manufacturer (BD Biosciences, USA). Percent inhibition of cytokine release compared to the control was calculated. The IC50 values were calculated by a nonlinear regression method.
(ELISA stands for enzyme-linked immunosorbent assay.)

Regarding `C/C=C/C(O)C(C)/C=C/C(=N\O)C(C)C(O)C(C)C1OC(=O)/C(OC)=C/C(C)=C/C(C)C(O)C(CC)C(O)C(C)C/C(C)=C/C=C/C1OC` (centres unmarked) [Compound of example 7, (3Z,5E,13E,15E)-18-((5Z,6E,10E)-3,9-Dihydroxy-5-(hydroxymino)-4,8-dimethyldodeca-6,10-dien-2-yl)-9-ethyl-8,10-dihydroxy-3,17-dimethoxy-5,7,11,13-tetramethyl oxacyclooctadeca-3,5,13,15-tetraen-2-one], the figures for the IC50 in the assay with IL-6 [1] and in the assay on IL-6 [2] were 300 nM and 40 nM, respectively. Besides, the CEBPβ gene expression in the assay with CEBPβ (Human monocytes, 3 h, ± SE, N = 3) is listed as −2.2 + 0.3 log fold change; in the assay on CEBPβ (Synovial cells, 12 h, N = 1) it was 0.4 log fold change; in the assay with CEBPβ (THP-1 cells, 12 h, ± SE, N = 3) it was −0.2 + 0.5 log fold change.
